Literature values as cited in US6756057B2, “Amoxicillin and potassium clavulanate dosage form” (Beecham Pharmaceuticals (pte) Limited, priority 2000, dated 2004).

Conditions: in vivo

elimination half-life: about 1.3 hours
Structure (SMILES): CC1(C)S[C@@H]2[C@H](NC(=O)[C@H](N)c3ccc(O)cc3)C(=O)N2[C@H]1C(=O)O [amoxicillin]
